Measurements as given in EP0863156A1, “Peptides useful as somatostatin antagonists” (American Cyanamid Company, priority 1997, dated 1998).
Bridge positions count the residues as written; N and C are the ends. Square brackets hold non-standard residues; d marks the D form. Peptide text beside a SMILES is read from it.

Legend:
[1] = molecular target: T1, SSTR2 (Rattus norvegicus, UniProt P30680); experiment: Competitive binding of 125I labeled S-14 to membranes of cells expressing transfected SSTR2 (SPA); design: expressed in transfected cells
Experimental: Membrane preparation. Tissue culture cell lines expressing transfected cDNA clones of SSTR2 and SSTR5 are used as a source of plasma membranes which specifically bind ^125I labeled S-14 (Amersham, Arlington Heights, IL). Cells are removed from culture dishes by incubation at 4°C for 5 minutes in PBS containing 1 mM EDTA, spun down (2,000 rpm, 5') and resuspended in 15 mL homogenization buffer (1 mM sodium bicarbonate pH 7.2, 1 mM EDTA, 1 mM EGTA and the following protease inhibitors: leupeptin and aprotenin at 5 µg/mL and benzamidine and bacitracin at 100 µg/mL). Cells are given 20 strokes with a Dounce homogenizer on ice and spun at 2000 rpm for 10 minutes. Membranes are isolated from the supernatant by centrifugation at 17,000 rpm for 30 minutes. The membrane pellet is washed once in 15 mL homogenization buffer and once in storage buffer (25 mM Tris pH 7.4 containing protease inhibitors). […] The membrane pellet is resuspended in storage buffer, measured for protein concentration (BioRad, CA) and stored at -80°C.
Binding assay. […] Bound radioligand is determined by counting in a Microbeta Liquid Scintillation counter (Wallac, Gaithersburg, MD). Binding data is plotted and IC50 and Ki values are calculated for test compounds using Prism software (Graphpad Software Inc., San Diego, CA) and are shown in Table V. Binding is expressed as Ki, µM.

[2] = molecular target: T1, SSTR2; experiment: cAMP accumulation in forskolin-stimulated GH4C1/SSTR2 cells (SPA radioimmunoassay); type: cell-based; design: expressed in transfected cells; host or cells: GH4C1 rat pituitary tumor cells; details: GH4-C1; test peptide 100 µM; percent reversal of SSTR2 activation by SRIF or MK678; 0% = forskolin plus agonist, 100% = forskolin alone; read-out: cAMP Assay Intrinsic activity

T1 sequence (P30680 whole entry): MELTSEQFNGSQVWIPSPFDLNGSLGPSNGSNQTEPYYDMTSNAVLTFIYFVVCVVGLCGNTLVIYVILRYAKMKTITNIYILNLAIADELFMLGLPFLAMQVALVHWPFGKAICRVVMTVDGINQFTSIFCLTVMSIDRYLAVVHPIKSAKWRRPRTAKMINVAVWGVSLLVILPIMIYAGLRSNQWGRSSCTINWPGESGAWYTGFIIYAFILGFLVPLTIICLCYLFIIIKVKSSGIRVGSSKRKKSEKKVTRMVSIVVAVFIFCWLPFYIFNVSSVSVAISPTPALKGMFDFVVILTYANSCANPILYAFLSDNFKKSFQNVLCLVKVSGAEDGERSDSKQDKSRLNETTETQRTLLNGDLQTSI

Ki [1]: 1950 nM
Emax [2]: 25.9%
SMILES: CC[C@@H](C)[C@H]1NC(=O)[C@@H](Cc2ccccc2)NC(=O)[C@@H](Cc2c[nH]cn2)NC(=O)[C@@H](N)CSSC[C@@H](C(=O)O)NC(=O)[C@@H](Cc2ccccc2)NC(=O)[C@@H](Cc2c[nH]c3ccccc23)NC(=O)[C@@H](CCCNC(=N)N)NC1=O [Peptide 34, ss C-h-f-i-r-w-f-C] (H-C[dH][dF][dI][dR][dW][dF]C-OH; disulfide 1-8)
